Values joined by “and” are separate entries in the source; they are usually repeats but may differ in a detail not shown here. Equal values may be shown once.
How the values were obtained:
[1] = target: T1, Human recombinant Top1 (Homo sapiens, UniProt P11387); assay: Topoisomerase I-mediated DNA cleavage reactions; type: biochemical; design: key to activity of the compounds to produce Top1-mediated DNA cleavage: +: weak activity; ++ and +++: moderate activity; ++ and +++: moderate activity; ++++: similar activity as 1 μM camptothecin; conditions: for Top1 inhibitory activity in Top1-mediated DNA cleavage assay: semi-quantitative scale from 0 to ++++, relative to CPT at 1 μM; for activity of the compounds to produce Top1-mediated DNA cleavage: semiquantitative, tested at 0.1 μM, 1 μM, 10 μM, 100 μM, relative to 1 μM camptothecin
T1 construct: made in house
T1 sequence (P11387 1-765): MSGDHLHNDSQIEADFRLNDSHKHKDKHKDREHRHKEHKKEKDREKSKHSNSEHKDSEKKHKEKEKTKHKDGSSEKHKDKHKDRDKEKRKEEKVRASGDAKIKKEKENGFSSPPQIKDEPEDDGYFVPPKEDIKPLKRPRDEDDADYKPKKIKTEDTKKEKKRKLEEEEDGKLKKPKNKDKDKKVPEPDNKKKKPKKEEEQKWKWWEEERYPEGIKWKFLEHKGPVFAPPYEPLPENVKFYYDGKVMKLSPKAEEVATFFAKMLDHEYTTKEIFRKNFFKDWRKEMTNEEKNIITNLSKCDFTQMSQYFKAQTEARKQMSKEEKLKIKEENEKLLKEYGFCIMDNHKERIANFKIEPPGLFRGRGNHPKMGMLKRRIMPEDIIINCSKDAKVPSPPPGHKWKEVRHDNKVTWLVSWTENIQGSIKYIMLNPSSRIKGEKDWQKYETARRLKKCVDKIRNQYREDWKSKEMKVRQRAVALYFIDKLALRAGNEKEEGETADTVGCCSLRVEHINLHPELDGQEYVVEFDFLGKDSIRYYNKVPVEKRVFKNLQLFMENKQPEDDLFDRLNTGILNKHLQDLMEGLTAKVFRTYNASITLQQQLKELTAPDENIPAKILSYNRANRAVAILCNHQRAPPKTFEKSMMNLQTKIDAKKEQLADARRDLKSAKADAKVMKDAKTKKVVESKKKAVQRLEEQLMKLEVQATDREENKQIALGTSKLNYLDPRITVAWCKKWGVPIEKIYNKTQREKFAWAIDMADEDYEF
Protocol: Topoisomerase I-Mediated DNA Cleavage Reactions. Human recombinant Top1 was purified from Baculovirus as described previously.^34 The 161 bp fragment from pBluescript SK(−) phagemid DNA (Stratagene, La Jolla, Calif.) was cleaved with the restriction endonucleases PvuII and HindIII (New England Biolabs, Beverly, Mass.) supplied in NE buffer 2 (50 μL reactions) for 1 h at 37° C., and separated by electrophoresis in a 1% agarose gel made in 1×TBE buffer. The 161 bp fragment was eluted from the gel slice using the QIAEX II kit (QIAGEN Inc., Valencia, Calif.). Approximately 200 ng of the fragment was 3′-end labeled at the HindIII site by fill-in reaction with [alpha-^32P]-dGTP and 0.5 mM dATP, dCTP, and dTTP, in React 2 buffer (50 mM Tris-HCl, pH 8.0, […], 50 mM NaCl) with 0.5 unit of DNA polymerase I (Klenow fragment). Unincorporated ^32P-dGTP was removed using mini Quick Spin DNA columns (Roche, Indianapolis, Ind.), and the eluate containing the 3′-end-labeled 161 bp fragment was collected. Aliquots (approximately 50,000 dpm/reaction) were incubated with topoisomerase I at 22° C. for 30 min in the presence of the tested drug. Reactions were terminated by adding SDS (0.5% final concentration). The samples (10 μL) were mixed with 30 μL of loading buffer (80% formamide, 10 mM sodium hydroxide, 1 mM sodium EDTA, 0.1% xylene cyanol, and 0.1% bromophenol blue, pH 8.0). Aliquots were separated in denaturing gels (16% polyacrylamine, 7 M urea). Gels were dried and visualized by using a Phosphoimager and ImageQuant software (Molecular Dynamics, Sunnyvale, Calif.). Each gel included a sample of DNA alone, DNA with only the drug, and DNA with Top I without the drug. The compounds described herein were tested at concentrations of 0.1 μM, 1 μM, 10 μM, 100 μM. The activity of the compounds to produce Top1-mediated DNA cleavage is expressed semiquantitatively as follows: +: weak activity; ++ and +++: moderate activity; ++++: similar activity as 1 μM camptothecin. Results: 33, 0; 34, 0; 32, ++; 31, +++; 30, +; 29, +; 28, 0; and 19, 0.
Biological Results.All of the target compounds were tested for induction of DNA damage in Top1-mediated DNA cleavage assays. The results of this assay are designated relative to the Top1 inhibitory activity of CPT and expressed in semi-quantitative fashion on the scale from 0, no detectable activity, to ++++, similar activity to that of compound 1 at a concentration of 1 μM. […] Compounds 29 and 30, containing an N-(3-morpholinylpropyl) or an N-(3-imidazolylpropyl), respectively were Top1 inhibitors, but only at the lower + level. Without being bound by theory, it is believed that the loss of Top1 inhibitory activity with expansion of the five-membered indenone ring of the indenoisoquinoline to the six-membered ring of compounds described herein might result from the decreased overall solubility, especially for 14, 19, and 28, rather than differences in intercalation between DNA base pairs at the Top1 cleavage site. With 29 and 30, incorporation of amines increased water solubility and affinity toward DNA, possibly due to attraction of their positively charged protonated amines with the phosphates of the DNA backbone.

[2] = Solubility in organic solvents; type: physicochemical; conditions: relative to their precursors 14 and 29
[3] = test system: K-562; assay: NCI screen antiproliferative activity, leukemia K-562; type: cell-based; conditions: Homo sapiens, K562, concentration for 50% growth inhibition
Protocol: (§1) The antipoliferative activity of each compound was tested against 55 different human cancer cell lines in the National Cancer Institute screen.^32, 33 The chlorodibenzonaphthyridinone 32 bearing a morpholinopropyl chain on the lactam nitrogen was cytotoxic to human cancer cells at low micromolar concentrations. The cytotoxicities of 32 in selected cell lines are presented in Table 1, along with the mean graph midpoint value of 5.6 μM. In general, cytotoxicity GI50 values appeared to be in the low micromolar range, although 32 was particularly cytotoxic in the leukemia K-562 and RPMI-8226 cell lines, the ovarian IGROV1 cancer cell line, the renal UO-31 cancer cell line, and the breast MCF7 cancer cell line.

[4] = test system: RPMI-8226; assay: NCI screen antiproliferative activity, leukemia RPMI-8226; type: cell-based; conditions: Homo sapiens, concentration for 50% growth inhibition
Protocol: as §1

[5] = test system: HOP-62; assay: NCI screen antiproliferative activity, lung HOP-62; type: cell-based; conditions: Homo sapiens, concentration for 50% growth inhibition
Protocol: as §1

[6] = test system: HCT-116; assay: NCI screen antiproliferative activity, colon HCT-116; type: cell-based; conditions: Homo sapiens, concentration for 50% growth inhibition
Protocol: as §1

[7] = test system: COLO 205; assay: NCI screen antiproliferative activity, colon COLO 205; type: cell-based; conditions: Homo sapiens, concentration for 50% growth inhibition
Protocol: as §1

[8] = test system: SF-539; assay: NCI screen antiproliferative activity, CNS SF-539; type: cell-based; conditions: Homo sapiens, concentration for 50% growth inhibition
Protocol: as §1

[9] = test system: UACC-62; assay: NCI screen antiproliferative activity, melanoma UACC-62; type: cell-based; conditions: Homo sapiens, concentration for 50% growth inhibition
Protocol: as §1

[10] = test system: OVCAR-3; assay: NCI screen antiproliferative activity, ovarian OVCAR-3; type: cell-based; conditions: Homo sapiens, concentration for 50% growth inhibition
Protocol: as §1

[11] = test system: IGROV1; assay: NCI screen antiproliferative activity, ovarian IGROV1; type: cell-based; conditions: Homo sapiens, IGROV-1, concentration for 50% growth inhibition
Protocol: as §1

[12] = test system: SN12C; assay: NCI screen antiproliferative activity, renal SN12C; type: cell-based; conditions: Homo sapiens, concentration for 50% growth inhibition
Protocol: as §1

[13] = test system: UO-31; assay: NCI screen antiproliferative activity, renal UO-31; type: cell-based; conditions: Homo sapiens, concentration for 50% growth inhibition
Protocol: as §1

[14] = test system: DU-145; assay: NCI screen antiproliferative activity, prostate DU-145; type: cell-based; conditions: Homo sapiens, concentration for 50% growth inhibition
Protocol: as §1

[15] = test system: MCF7; assay: NCI screen antiproliferative activity, breast MCF7; type: cell-based; conditions: Homo sapiens, concentration for 50% growth inhibition
Protocol: as §1

[16] = test system: all human cancer cell lines successfully tested; assay: NCI screen mean graph midpoint for growth inhibition; type: cell-based; conditions: mean over all human cancer cell lines successfully tested
Protocol: as §1

[17] = Top1-mediated DNA fragmentation pattern, compared with indenoisoquinolines

COc1cc2c(=O)n(C)c3c4ccccc4[nH]c(=O)c3c2cc1OC [Compound 14, 8,9-Dimethoxy-5-methyldibenzo[c,h][1,6]naphthyridine-6,11(5H,12H)-dione]
Top1 inhibitory activity in Top1-mediated DNA cleavage assay [1]: no detectable inhibition and 0

COc1cc2c(OC)nc3c4ccccc4nc(OC)c3c2cc1OC [Compound 34, 6,8,9,11-Tetramethoxydibenzo[c,h][1,6]naphthyridine]
Top1 inhibitory activity in Top1-mediated DNA cleavage assay [1]: loss of activity | activity of the compounds to produce Top1-mediated DNA cleavage [1]: 0

COc1cc2c(=O)n(CCCO)c3c4ccccc4[nH]c(=O)c3c2cc1OC [Compound 28, 5-(3-Hydroxypropyl)-8,9-dimethoxydibenzo[c,h][1,6]naphthyridine-6,11(5H,12H)-dione]
Top1 inhibitory activity in Top1-mediated DNA cleavage assay [1]: no detectable inhibition | activity of the compounds to produce Top1-mediated DNA cleavage [1]: 0

C=CCn1c(=O)c2cc(OC)c(OC)cc2c2c(=O)[nH]c3ccccc3c21 [Compound 19, 5-Allyl-8,9-dimethoxydibenzo[c,h][1,6]naphthyridine-6,11(5H,12H)-dione]
Top1 inhibitory activity in Top1-mediated DNA cleavage assay [1]: no detectable inhibition | activity of the compounds to produce Top1-mediated DNA cleavage [1]: 0

COc1cc2c(=O)n(C)c3c4ccccc4nc(Cl)c3c2cc1OC [Compound 31, 11-Chloro-8,9-dimethoxy-5-methyldibenzo[c,h][1,6]naphthyridin-6(5H)-one]
cleavage band intensity at base pair 97 [1, 17]: more intense | cleavage band intensity at base pairs 44 and 68 [1, 17]: weak | activity of the compounds to produce Top1-mediated DNA cleavage [1]: +++ | solubilities in solvents like DMSO, methanol and chloroform [2]: increased substantially

COc1cc2c(Cl)nc3c4ccccc4nc(Cl)c3c2cc1OC [Compound 33, 6,11-Dichloro-8,9-dimethoxydibenzo[c,h][1,6]naphthyridine]
Top1 inhibitory activity in Top1-mediated DNA cleavage assay [1]: loss of activity | activity of the compounds to produce Top1-mediated DNA cleavage [1]: 0

COc1cc2c(=O)n(CCCn3ccnc3)c3c4ccccc4[nH]c(=O)c3c2cc1OC [Compound 30, 5-(3-(1H-Imidazol-1-yl)propyl)-8,9-dimethoxydibenzo[c,h][1,6]-naphthyridine-6,11(5H,12H)dione]
activity of the compounds to produce Top1-mediated DNA cleavage [1]: +

COc1cc2c(=O)n(CCCN3CCOCC3)c3c4ccccc4nc(Cl)c3c2cc1OC [Compound 32, 11-Chloro-8,9-dimethoxy-5-(3-morpholinopropyl)dibenzo[c,h][1,6]-naphthyridin-6(5H)-one]
DNA cleavage sites with significant band intensity ([1]; Top1-mediated DNA fragmentation pattern): only bands for cleavages at the 97 and 119 sites are intense enough to be significant | activity of the compounds to produce Top1-mediated DNA cleavage [1]: ++ | GI50 [3]: 0.2 µM | GI50 [4]: 0.1 µM | GI50 [5]: 4.7 µM | GI50 [6]: 4.16 µM | GI50 [7]: 0.33 µM | GI50 [8]: 12.3 µM | GI50 [9]: 6.8 µM | GI50 [10]: 6.3 µM | GI50 [11]: 0.03 µM | GI50 [12]: 13.2 µM | GI50 [13]: 0.02 µM | GI50 [14]: 10.5 µM | GI50 [15]: 0.4 µM | MGM (mean GI50 across cell lines) [16]: 5.6 µM | solubilities in solvents like DMSO, methanol and chloroform [2]: increased substantially | melting point: 185 to 190 °C (dec.)

COc1cc2c(=O)n(CCCN3CCOCC3)c3c4ccccc4[nH]c(=O)c3c2cc1OC [Compound 29, 8,9-Dimethoxy-5-(3-morpholinopropyl)dibenzo[c,h][1,6]naphthyridine-6,11(5H,12H)-dione]
activity of the compounds to produce Top1-mediated DNA cleavage [1]: +

From patent US9073920B2, “Substituted dibenzonaphthyridines, pharmaceutical uses thereof and processes therfor” (Purdue Research Foundation, priority 2010, dated 2015)
